Source: patent publication US20100048594A1, “USE OF CYTOHESIN INHIBITORS FOR CHEMICALLY INDUCING LONGEVITY” (RHEINISCHE FRIEDRICH-WILHELMS UNIVERSITAT, priority 2006, published 2010)

Columns and labels:
[1] = test system: IGFBP1 (insulin-like growth factor binding protein); assay: Transcription of IGFBP1 in insulin-treated HepG2 liver cells (quantitative PCR); assay type: cell-based, human
Description: Human hepG2 cells (ECACC) were cultivated in EMEM medium (Cambrex) with the addition of 10% fetal calf serum. 10^5 cells were seeded in 2 ml medium in 6 well plates and were cultivated at 37° C. in a moist atmosphere with 5% CO2 for 1 to 3 days, before being used for experiments.
For human HepG2 cells (ECACC), serum was removed from the medium for 24 hours, the cells were incubated for an additional 12 hours with concentrations of 1.5625 μM, 3.125 μM, 6.25 μM, 12.5 μM, 25 μM or 50 μM of the compound according to formula (9) and with 10 nM insulin. Control cells received DMSO in a concentration corresponding to that of the treated cells.
Total RNA was isolated using the Absolutely RNA Kit (Stratagene), and the cDNA was produced by means of the reverse transcription of 2 μg RNA using the High Capacity cDNA Archive Kit (Applied Biosystems), according to the manufacturer's instructions. Quantitative PCR was performed in 10 μl batches in an iQ5 Cycler (BioRad) by means of the TaqMan Gene Expression Assay (Applied Biosystems) using gene-specific primer (Applied Biosystems), according to the manufacturer's instructions. The data were normalized to the β2-microglobulin expression.

1nR (insulin receptor) = assay: Expression of insulin-repressed gene 1nR (insulin receptor) in fed Drosophila larvae (real-time PCR); assay type: in vivo; conditions: 10 mg compound per 1 g brewer's yeast, 3 days
Description: Three groups of 100 Drosophila larvae received 10 mg of the compound according to formula (9) mixed with 1 g autoclaved and pulverized brewer's yeast (Brewferm), while three control groups of 100 animals each received the uncut brewer's yeast. This food was administered on water-impregnated filters (Macherey-Nagel) for 3 days at 25° C.
In each case, more than 10 animals of the group were washed thoroughly with water, placed in lysate buffer (NucleoSpin RNA II kit, Macherey & Nagel), and homogenized for 1 minute at maximum speed (Ultra-Turrax T25basic). Total RNA was isolated using the NucleoSpin RNA II Kit (Macherey & Nagel, including DNase I-treatment on the column).
cDNA was produced from each 500 ng total RNA using the QuantiTect Reverse Transcription Kit (Qiagen), according to the manufacturer's instructions, including DNase I treatment. PCR was performed in batches with a total volume of 25 μl (iQ5 Real Time PCR Detection System, BioRad). The batches contained 1 μl of the cDNA batch, in each case 200 nM and 3′- and 5′-primer (Metabion) 12.5 μl 2×iQ5 SYBR Green Supermix (BioRad).
The PCR program that was used comprised 40 cycles with the following steps: 15 seconds denaturing at 95° C., 30 seconds annealing at 59° C. and 30 seconds extension at 72° C. Evaluation was carried out using the iQ5 Optical System software (Version 1.1.1442.OCR, BioRad). […]

Akt [2] = assay: Insulin-stimulated phosphorylation of Akt in mouse liver after feeding (immunoblot); assay type: in vivo, C57BL/6 mice; conditions: food with 0.9 μmol/g compound for 3 days, 40 μg insulin i.p.
From the text: C57BL/6 mice (Charles River Laboratories) that had been kept in a pathogen-free animal facility, maintaining a 12-hour light/dark cycle, were used. The animals received standard mouse food (19% protein, 3.3% fat, 41.3% carbohydrates; ssniff Spezialdiäten GmbH) ad libitum. Male animals between the ages of 8 and 12 weeks were used.
A group of 6 C57BL/6 mice received standard mouse food mixed with 0.9 μmol/g of the compound according to formula (9) for a period of 3 days, while a control group of 6 animals received standard mouse food. The animals were then injected intraperitoneally with 100 μl normal saline solution (control group) or saline solution with 40 μg recombinant human insulin (Sigma). After 10 minutes the mice were anesthetized, the livers were removed and were lysed in lysate buffer (20 mM Tris-Cl, pH 7.5, 150 mM NaCl, 1 mM EDTA, 1 mM EGTA, 2.5 mM sodium pyrophosphate, 1 mM β-glycerophosphate, 1 mM sodium vanadate, 1% Triton X-100) and protease inhibitor mix HP (Serva).
Further, standardized quantities of protein were separated out using SDS-PAGE, and this protein was identified via immunoblotting, after being transferred to nitrocellulose membranes, with an antibody, against the phosphorylated protein Akt, pAkt (Thr308) (cell signaling). Visualization and evaluation were performed as described in Example 2.

Akt [3] = assay: Insulin-stimulated phosphorylation of Akt in Drosophila S2 Schneider cells (Western blot); assay type: cell-based; conditions: 10 μM compound 2 hours, 10 μg/ml human insulin 15 minutes
Description: 10^6 Drosophila S2 cells (Schneider, 1972. J. Embryol. Exp. Morphol. 27, 353) were seeded in cell culture medium (PAN company) with 10% fetal calf serum and 1% streptomycin, penicillin (Gibco) in 35 mm cell culture plates (Nunc company) and cultivated for 2 days at 25° C. to 70-80% confluence. After 2 days, 0.5% (v/v) of the medium DMSO was added, and, based upon the experiment, 10 μM of the compound according to formula (9) was added for 2 hours before insulin stimulation. For an insulin stimulation, human insulin (Sigma) was used for 15 minutes at a rate of 10 μg/ml. Once stimulation was complete, the cells were washed with cold PBS, lysed in cold (4° C.) lysate buffer (50 mM Tris-HCl, pH 8.0, 150 mM NaCl, 1.0% Triton X-100, 0.1% SDS, 0.5% sodium deoxycholate, 50 mM NaF, 100 μM sodium orthovanadate, 1 mM phenylmethylsulfonyl fluoride and EDTA-free protease inhibitor (Roche), according to manufacturer's instructions, and used in the Western Blot analysis.
In each case, 10 μg protein were isolated on a 12% SDS polyacrylamide gel and transferred to 0.22 μm porous nitrocellulose membranes (Amersham). […]
Visualization was performed by means of the ECL Kit (Enhanced Chemiluminescence, Amersham) using the VersaDoc 5000 Imaging System (BioRad) and the QuantityOne software (BioRad).

For `COc1nc(-c2ccc3c(c2)OCO3)n(-c2ccc(NC(=O)CSc3ccccc3)cc2)n1` [Compound (9)], the “IGFBP1 expression relative to untreated cells” value ([1]; 12.5 μM compound, 10 nM insulin) was “nearly the value of the untreated cells”, the “block of the insulin-dependent inhibition of the transcription of IGFBP1” value ([1]; 12 hours with compound and 10 nM insulin) was “nearly completely block” and the “expression of insulin-repressed gene 1nR (insulin receptor)” value (1nR (insulin receptor)) was “more than double”. For the same compound, the “inhibition of the phosphorylation of the protein Akt stimulated by insulin” value (Akt [2]) was “approximately 40%” and the “insulin-stimulated phosphorylation of the protein Akt” value (Akt [3]) was “decreased by half”.
